In patent US9072775B2, “Fluorescent emulsions for optical imaging” (priority 2007, dated 2015):
Values belong to the molecule of their own block, whether it stands above or below them.

Assays:
[1] = Quantum yield of fluorescence relative to a reference standard; type: physicochemical; details: In solution in MeOH; reference Nile Blue perchlorate in ethanol
Protocol: The quantum yield of fluorescence (Φ) is expressed by the following equation: (Φ)=(number of photons emitted)/(number of photons absorbed).
(§1) It is common practice to determine a quantum yield relative to that of a reference standard, by the techniques known to those skilled in the art. The quantum yield of this formulation was calculated by comparison with a reference standard sample (Nile Blue perchlorate in ethanol, sold by Invitrogen) having a known quantum yield value equal to 0.27. The same measurements (carried out using a Varian spectrophotometer, model Cary 300 and a Perkin Elmer spectrofluorimeter, model LS 50) and calculations were carried out for a solution of DiD fluorophore in methanol (MeOH).

[2] = Absorption and emission spectra; type: physicochemical; details: In solution in MeOH
Protocol: as §1

[3] = Fluorescence lifetime from time-resolved fluorescence decay; type: physicochemical; details: pulsed excitation 740 nm
Protocol: The fluorescence decays of the fluorophore free in solution in methanol or encapsulated in the lipid nanoparticles of oil-in-water emulsion type, in suspension in PBS (10 mM, pH 7.3), were measured on a measuring system using a neodymium-vanadate, continuous-wave laser [Millennia Pro, Spectra-Physics, USA], (532 nm, 5 W)-pumped sapphire-titanium laser [Tsunami, Spectra-Physics, USA] (80 MHz, 100 femtoseconds), tunable to a wavelength of 700 nm to 1000 nm. Depending on the operating mode of this device, the laser is injected into a multimode optical fiber, used as excitatory fiber for the sample to be studied. A second (detection) optical fiber collects the fluorescence emitted or the laser scattering via a filtering system. The signal is measured by means of a photomultiplier tube [Hamamatsu, Japan] coupled to a TCSPC counting board [Becker&Hickel, Germany]. The latter is controlled by means of a sampled part (4%) of the laser signal (pulse train) via a rapid photodiode (PD) [Becker&Hickel, Germany] before injection into the optical fiber.
The measurements were carried out using a pulsed excitation wavelength of 740 nm. The fluorescence intensity (in arbitrary units) was measured in order to plot curves reflecting the fluorescence decay (fluorescence intensity (arbitrary units) expressed as a function of time (in ps)); curves not represented. […]

[4] = in ethanol; cited from earlier work

Structure (SMILES): CCCCCCCCCCCCCCCCCCN1C(=CC=CC=CC2=[N+](CCCCCCCCCCCCCCCCCC)c3ccccc3C2(C)C)C(C)(C)c2ccccc21.[O-][Cl+3]([O-])([O-])[O-] [DiD, 1,1′-dioctadecyl-3,3,3′,3′-tetramethylindodicarbocyanin perchlorate]
Quantum yield [1]: 0.29
Emission [2]: 665 nm
Max. absorption [2]: 644 nm

Lifetime of the DiR fluorophore in solution in methanol [3]: 800 ps
Structure (SMILES): CCCCCCCCCCCCCCCCCCN1/C(=C/C=C/C=C/C=C/C2=[N+](CCCCCCCCCCCCCCCCCC)c3ccccc3C2(C)C)C(C)(C)c2ccccc21.[I-] [DiR, 1,1′-dioctadecyl-3,3,3′,3′-tetramethylindotricarbocyanin iodide]

Structure (SMILES): CC[N+](CC)=c1ccc2nc3c(cc(N)c4ccccc43)oc-2c1.[O-][Cl+3]([O-])([O-])[O-] [Nile Blue perchlorate]
known quantum yield value of reference standard [4]: 0.27
